Measured values published in publication PMC5607265, “Design, synthesis and structure-activity relationship of 3,6-diaryl-7H-[1,2,4]triazolo[3,4-b][1,3,4]thiadiazines as novel tubulin inhibitors” (Scientific Reports, 2017).
“Also recorded” adds a separate entry of the source.

Columns and labels:
[1] = test system: gastric adenocarcinoma SGC-7901 cells; experiment: MTT antiproliferative assay, SGC-7901; format: cell-based, human; details: Homo sapiens, SGC-7901; MTT assay, 24 h exposure, triplicate; read-out: IC50 SGC-7901
Protocol: (§1) The SGC-7901, A549 and HT-1080 cell lines were purchased from the American Type Culture Collection (ATCC, Manassas, VA, USA). […] Briefly, approximately 3 × 10^4 cells were seeded in a 96-well plate. After 24 h of incubation at 37 °C, cells were exposed to compounds of differing concentrations for 24 h. After treatment, cells were washed with 1X PBS followed by addition of 100 µL of 0.05% MTT reagent to each well, followed by incubation for 4 h at 37 °C. After incubation, the supernatant from each well was carefully removed and the formazan crystals were dissolved in 100 µL of DMSO. The colour density was measured spectrophotometrically at 490 nm using a microplate reader (SpectraMax Plus384, Molecular Devices Corp., USA). The data were calculated and plotted as percent viability compared to control.
as §1

[2] = test system: lung adenocarcinoma A549 cells; experiment: MTT antiproliferative assay, A549; format: cell-based, human; details: Homo sapiens, A549; MTT assay, 24 h exposure, triplicate; read-out: IC50 A549
Protocol: as §1, §1

[3] = test system: fibrosarcoma HT-1080 cells; experiment: MTT antiproliferative assay, HT-1080; format: cell-based, human; details: Homo sapiens, HT-1080; MTT assay, 24 h exposure, triplicate; read-out: IC50 HT-1080
Protocol: as §1, §1

[4] = molecular target: T1, highly purified tubulin from porcine brain (Sus scrofa, UniProt P02554); experiment: Tubulin polymerization assay; format: biochemical; details: 37 °C; for effect on tubulin polymerization in words: CA-4 0.5-4 µM, 6i 0.1-8.0 µM, paclitaxel 5.0 µM
T1 construct: highly purified tubulin from porcine brain; purchased Cytoskeleton BK011P; host or cells: porcine brain (tissue-purified)
Protocol: This assay uses highly purified tubulin from porcine brain.
The reaction was monitored at 37 °C.
(§2) Tubulin polymerization assay[33] was conducted with reagents as described in the kit manufacturer (Cytoskeleton, Cat.#BK011P) in a 96-well plate. In brief, tubulin was re-suspended in ice-cold G-PEM buffer (80 mM PIPES, 2 mM MgCl2, 0.5 mM EGTA, 1 mM GTP, 20% (v/v) glycerol) and added to wells on a 96-well plate containing the designated concentration of drugs or vehicle. Samples were mixed well, and tubulin assembly was monitored (emission wavelength: 450 ± 20 nm; excitation wavelength: 360 ± 20 nm) at 1 min intervals for 90 min at 37 °C in a SpectraMax 340PC spectrophotometer (Biotek Synergy HT, Winooskin, VT, USA). IC50 values were calculated from data at the 20 min time point using GraphPad Prism software. Experiments were repeated three times.
as §2, with “assay” for “assay[33]”, “450±20” for “450 ± 20”, “360±20” for “360 ± 20”, “timepoint” for “time point”

[5] = test system: SGC-7901 cells; experiment: Cell cycle analysis by flow cytometry; format: cell-based, human; details: for cell cycle arrest: SGC-7901, 12 h, 6i 0.011, 0.022, 0.044 µM, CA-4 0.022 µM
Protocol: Thus, the effect of compound 6i on the cell cycle progression of the SGC-7901 cells was investigated by flow cytometry analysis (Fig. 5). […] Compound 6i could arrest cell cycle distribution at the G2/M phase in a dose-dependent manner.
Figure 5 Compound 6i affects the cell cycle progression in SGC-7901 cells.
Cell cycle analysis studies were performed by following a previously reported method. […] The cells were collected by centrifugation, washed with PBS and fixed in ice-cold 70% ethanol. The fixed cells were harvested by centrifugation and resuspended in 500 µl of PBS containing 1 mg/mL RNase. After 30 min of incubation at 37 °C, the cells were stained with […] propidium iodide (PI) at 4 °C in the dark for 30 min. The samples were then analyzed by FACScan flow cytometry (Becton-Dickinson, Franklin Lakes, NJ, USA). The experiments were repeated at least three times.
The cells were collected by centrifugation, washed with PBS and fixed in ice-cold 70% ethanol. The fixed cells were harvested by centrifugation and resuspended in 500 µl of PBS containing 1 mg/mL RNase. After 30 min of incubation at 37°C, the cells were stained with […] propidium iodide (PI) at 4°C in the dark for 30 min. The samples were then analyzed by FACScan flow cytometry (Becton-Dickinson, Franklin Lakes, NJ, USA). The experiments were repeated at least three times.
Figure S1 Compound 6i induced G2/M phase arrest in a time-dependent manner. SGC-7901 cells were treated with 6i (0.022 µM) for time 12, 24, 36, 48 and 60 h, then stained with PI and subjected to flow cytometric analysis.

[6] = molecular target: colchicine-binding site on tubulin (Sus scrofa, UniProt P02554); experiment: Competitive tubulin-binding assay (colchicine); details: 5.0 µM colchicine; compound 1.6, 5.0, 15.0 µM
Protocol: To confirm whether these designed compounds could bind to the colchicine site on tubulin, compound 6i was investigated for its ability of competitive inhibition of colchicine binding[39],[40]. CA-4 and paclitaxel were used as a positive and a negative control, respectively.
Figure 6 Competitive binding of 6i to colchicine-binding site on tubulin.
For the colchicine competitive binding assay, tubulin was co-incubated with indicated concentrations of MPSP-001 and paclitaxel at 37 °C for 1 h. Then colchicine was added to a final concentration of 5 μmol L^−1. Fluorescence was determined using a Hitachi F-2500 spectrofluorometer (Tokyo, Japan) at the excitation wavelength of 365 nm and the emission wavelength of 435 nm. Blank values (buffer alone) as the background were subtracted from all samples. […] Paclitaxel, not binding in the colchicine site of tubulin, was added as a negative control. The experiments were repeated at least three times.
(5). Competitive tubulin-binding assay. For the colchicine competitive binding assay, tubulin was co-incubated with indicated concentrations of MPSP-001 and paclitaxel at 37 °C for 1 h. Then colchicine was added to a final concentration of 5 μmol L^−1. Fluorescence was determined using a Hitachi F-2500 spectrofluorometer (Tokyo, Japan) at the excitation wavelength of 365 nm and the emission wavelength of 435 nm. […]

[7] = test system: SGC-7901, A549 and HT-1080 cell lines; experiment: MTT antiproliferative assay, span over the three cell lines; format: cell-based, human; details: MTT assay; for IC50: Homo sapiens, range over SGC-7901, A549 and HT-1080, read-out: IC50 range against the three human cancer cell lines
Protocol: as §1, §1

COc1cccc(-c2nnc3n2N=C(c2ccc(OC)c(N)c2)CS3)c1 [Compound 6i, 3-(3-Methoxyphenyl)-6-(3-amino-4-methoxyphenyl)-7H-[1,2,4]triazolo[3,4-b][1,3,4]thiadiazine]
IC50 [1]: 11 nM
IC50 [2]: 15 nM
IC50 [3]: 14 nM
effect on tubulin polymerization in words [4]: dose-dependent inhibition of tubulin polymerization
IC50 ([4]; data at the 20 min time point, read-out: IC50 of tubulin polymerization inhibition): 1600 nM
apoptosis after G2/M arrest (sub-G1) ([5]; SGC-7901, 6i 0.022 µM, 12-60 h): sub-G1 phase increase from 24 to 60 h; also recorded: cause subsequent apoptosis after G2/M arrest
cell cycle arrest [5]: induced cell arrest in G2/M phase from 0 to 12 h; also recorded: potent cell cycle arrests in G2/M phase
competition with colchicine: fluorescence of colchicine-tubulin complex [6]: fluorescence of a colchicine-tubulin complex was reduced
IC50 [7]: 11 to 15 nM
antiproliferative activity in words ([7]; SGC-7901, A549 and HT-1080): nanomolar IC50 values against all tested cells; also recorded: IC50 values at the nanomolar level

COc1ccc(/C=C\c2cc(OC)c(OC)c(OC)c2)cc1O [CA-4, Combretastatin A-4, reference compound]
IC50 [1]: 11 nM
IC50 [2]: 9 nM
IC50 [3]: 13 nM
effect on tubulin polymerization in words [4]: dose-dependent inhibition of tubulin polymerization
cell cycle arrest [5]: potent cell cycle arrests in G2/M phase
competition with colchicine: fluorescence of colchicine-tubulin complex [6]: fluorescence of a colchicine-tubulin complex was reduced
IC50 [7]: 9 to 13 nM
